Reference: publication PMC3896336, “Discovery of a Novel Target for the Dysglycemic Chromogranin A Fragment Pancreastatin: Interaction with the Chaperone GRP78 to Influence Metabolism” (PLoS ONE, 2014)
Entries after “also recorded” stand apart in the source; their conditions may differ. Each block holds one compound with its values, some of them ahead of it. Where no end group is shown, it is not given here.

Assays:
db/db mice = test system: db/db mice; design: method as in PMID 16931765; conditions: ref [38]; cited from earlier work
[1] = test system: human G6P-ase promoter-luciferase reporter, HepG2 hepatocytes; experiment: G6Pase promoter-luciferase reporter activity in HepG2 hepatocytes; format: cell-based; conditions: for effect on reduction of G6Pase promoter activity by GRP78 over-expression: PST 100 nM, HepG2 with pCMV-GRP78, Fig. 6B; for effect on reduction of G6Pase promoter activity by GRP78 over-expression / basal G6Pase-luciferase promoter activity with GRP78 ATPase inhibitor: VER-155008 1 µM or ADP 10 µM; for basal G6Pase-luciferase promoter activity with GRP78 ATPase inhibitor: HepG2, Fig. 6B
Experimental: The human G6P-ase promoter-luciferase reporter plasmid has been described. The GRP78 (BIP) promoter-luciferase reporter was a gift from Bruce M. Spiegelman (Harvard Medical School). The pCMV promoter-driven human GRP78 (HSPA5) expression plasmid was from Origene <www.origene.com/>. pSV-Beta-Gal (a transfection efficiency control plasmid, in which the SV40 early promoter drives expression of beta-galactosidase) was obtained from Promega <www.promega.com>.
Cells were plated on 24 well tissue culture plates the day before transfection. 0.5 to 1.0 µg of total DNA per well was used for transfection with Transfectin (BioRad). In some experiments, pSV-Beta-Gal (Promega; in which the SV40 early promoter drives expression of beta-galactosidase) was co-transfected as a transfection efficiency control. After 5 hrs supernatants were removed and fresh media containing different compounds as mentioned in the respective figures were added. 18 hrs after transfection, supernatants were removed and cells were lysed in passive lysis buffer (Promega) and the luciferase and beta-galactosidase activity were measured. Luciferase activity was normalized by beta-galactosidase as well as cellular protein, determined by dye-binding (coomassie G-250; BioRad).
Figure 5 PST acts on both uptake and mobilization steps for glucose: Effects on cellular glucose metabolism and insulin action. (A) PST and glucose uptake. Mouse 3T3-L1 cells were induced to differentiate into adipocytes, and 7–10 days post-differentiation glucose uptake was measured by incubating cells with 2-deoxy-[^3H]-glucose in the presence or absence of PST (100 nM), insulin (100 nM), or insulin plus PST (100 nM each). (B) Glucose mobilization and PST: Effects on expression of the gluconeogenic/glycogenolytic enzyme G6Pase (glucose-6-phosphatase). Human HepG2 hepatocytes were transfected with a glucose-6-phosphatase (G6P-ase)→luciferase reporter plasmid along with a beta gal reporter plasmid as mentioned in the experimental procedures, and 5 hrs after transfection cells were treated with PST (100 nM), insulin (100 nM), or both insulin and PST (100 nM each). Cells were harvested at 18–20 hrs after transfection to measure luciferase activity, beta gal activity and protein.
(§1) Figure 6 Role of the gluconeogenic/glycogenolytic enzyme G6Pase: Response to PST, GRP78, and inhibition of GRP78's ATPase enzymatic activity. (A) G6Pase expression, PST, and GRP78. Human HepG2 hepatocytes were transfected with G6P-ase→luciferase, along with pCMV-GRP78 or an empty vector (pCMV promoter without insert). 5 hrs after transfection, cells were treated with PST (100 nM) itself (versus mock), or by UPR activation (tunicamycin, 5 µg/mL; or thapsigargin, 0.3 µM). Cells were harvested at 18–20 hrs to measure luciferase activity and protein. (B) G6Pase expression during ATPase enzymatic activity inhibition of GRP78. Human HepG2 hepatocytes were transfected as in (A), and 5 hrs later were treated with the GRP78 ATPase inhibitors VER-155008 (1 µM), ADP (10 µM), or PST (100 nM). Cells were harvested at 18–20 hrs to measure luciferase activity and protein. (C) GRP78 expression: Visualization by immunoblot. Changes in GRP78 expression are shown by anti-GRP78 immunoblot (control: anti-actin), during either UPR activation (by thapsigargin 0.3 µM or tunicamycin 5 µg/mL), or exogenous over-expression (transfection of pCMV-GRP78).

[2] = test system: GRP78 protein expression, HepG2 hepatocytes; experiment: GRP78 protein expression by anti-GRP78 immunoblot in hepatocytes; format: cell-based, human; conditions: UPR activation by tunicamycin 5 µg/mL or thapsigargin 0.3 µM; Fig. 6C
Experimental: as §1

cellular glucose uptake = conditions: naturally occurring human variant; ref [14]; cited from earlier work
From the text: The activity of PST as a regulatory gastroenteropancreatic peptide has been established in the light of a variety of biological effects in a number of tissues [6]–[9], including its role in modulation of energy metabolism, with a general counter-regulatory effect to insulin. […] Metabolic effects of PST have been c ...

GRP78 (HSPA5, BIP) = experiment: Ligand affinity isolation of PST binding protein from mouse liver membranes (biotinylated peptide as bait, streptavidin agarose, SDS-PAGE, LC-MS/MS); conditions: control ligand affinity experiment, immobilized biotinylated catestatin (human CHGA352–372), liver homogenate; results not shown

Compound: O=C(O)CCCc1ccccc1 [4-phenylbutyric acid (PBA), 4-phenylbutyric acid]
ER stress, glucose homeostasis and insulin sensitivity (db/db mice): reduced ER stress, with restored glucose homeostasis and improved insulin sensitivity

Compound: Nc1ncnc2c1ncn2[C@@H]1O[C@H](COP(=O)(O)OP(=O)(O)O)[C@@H](O)[C@H]1O [ADP, adenosine 5′-diphosphate]
effect on reduction of G6Pase promoter activity by GRP78 over-expression [1]: could not fully overcome the effect of GRP78 over-expression; also recorded: could still be partially reversed
basal G6Pase-luciferase promoter activity with GRP78 ATPase inhibitor [1]: basal G6Pase-luciferase promoter activity rose (Fig. 6B) to a level comparable to PST activation

Compound: C[C@H](CCC(=O)NCCS(=O)(=O)O)[C@H]1CC[C@H]2[C@@H]3[C@@H](O)C[C@@H]4C[C@H](O)CC[C@]4(C)[C@H]3CC[C@]12C [TUDCA, tauroursodeoxycholic acid]
ER stress, glucose homeostasis and insulin sensitivity (db/db mice): reduced ER stress, with restored glucose homeostasis and improved insulin sensitivity

Compound: N#Cc1ccc(COC[C@H]2O[C@@H](n3c(NCc4ccc(Cl)c(Cl)c4)nc4c(N)ncnc43)[C@H](O)[C@@H]2O)cc1 [VER-155008]
effect on reduction of G6Pase promoter activity by GRP78 over-expression [1]: could not fully overcome the effect of GRP78 over-expression; also recorded: could still be partially reversed
basal G6Pase-luciferase promoter activity with GRP78 ATPase inhibitor [1]: basal G6Pase-luciferase promoter activity rose (Fig. 6B) to a level comparable to PST activation

Compound: C/C=C(/C)C(=O)O[C@H]1C(C)=C2[C@H]([C@@H]1OC(=O)CCCCCCC)[C@@](C)(OC(C)=O)C[C@H](OC(=O)CCC)[C@@]1(O)[C@H]2OC(=O)[C@@]1(C)O [thapsigargin]
increase in GRP78 protein expression as compared to untreated cells [2]: ~15 fold

Compound: Gly297Ser: naturally occurring human PST variant, Gly297Ser in the functionally important carboxyl terminus of the peptide (SEALAVDGAGKPGAEEAQDPEGKGEQEHSQQKEEEEEMAVVPQSLFRG; ends and bridges not checked; UniProt P10645 272-319, looked up, variant G297S)
potency to inhibit cellular glucose uptake (cellular glucose uptake): substantially increasing its potency to inhibit cellular glucose uptake

pull down of GRP78 (GRP78 (HSPA5, BIP)): did not pull down the GRP78 protein
Compound: catestatin

suppression of PST-induced activation of the G6Pase promoter ([1]; insulin 100 nM plus PST 100 nM, HepG2, Fig. 5B): ~40%
Compound: insulin

Compound: tunicamycin
increase in GRP78 protein expression as compared to untreated cells [2]: ~15 fold
